Measured values reported in BindingDB's records for doi:10.7270/Q2QJ7FRJ (Nmmlsc, 2009).

The compounds below were run against Cell division control protein 42 homolog (Homo sapiens, UniProt P60953) (assay: inhibition of fluorescent GTP binding to wildtype Cdc42 – biochemical, pyrazoline analogs, multiplex bead flow cytometry, Ki, SAR follow-up (AID 2019)). Settings: not given.
Cell division control protein 42 homolog, sequence (P60953 whole entry): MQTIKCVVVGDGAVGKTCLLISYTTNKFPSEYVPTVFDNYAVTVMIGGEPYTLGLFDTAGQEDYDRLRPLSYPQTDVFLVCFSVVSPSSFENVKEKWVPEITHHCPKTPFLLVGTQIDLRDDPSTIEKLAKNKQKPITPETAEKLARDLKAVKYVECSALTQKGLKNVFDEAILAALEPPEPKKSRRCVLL

`COc1ccc(C2CC(c3ccccc3F)=NN2c2ccc(S(N)(=O)=O)cc2)cc1` (centres undefined) [UNM-0000306110] and `COc1ccc(C2CC(c3ccccc3Br)=NN2c2ccc(S(N)(=O)=O)cc2)cc1` (centres undefined) [UNM-0000306112] are within 1.5-fold of each other in EC50: 2790 nM for the first, 3360 nM for the second.

Compared with `COc1ccc(C2CC(c3cccc(Br)c3)=NN2c2ccc(S(N)(=O)=O)cc2)cc1` (centres undefined) [UNM-0000306113], `COc1ccc(C2CC(c3cccc(Cl)c3)=NN2c2ccc(S(N)(=O)=O)cc2)cc1` (centres undefined) [UNM-0000306134] is 1.6-fold lower in EC50: 2070 nM for the first, 1300 nM for the second. The second is the more potent here.

`COc1ccc(C2CC(c3ccc(Br)cc3)=NN2c2ccc(S(N)(=O)=O)cc2)cc1` (centres undefined) [UNM-0000306138] and `COc1ccc(C2CC(c3cccc(C)c3)=NN2c2ccc(S(N)(=O)=O)cc2)cc1` (centres undefined) [UNM-0000306153] are within 1.5-fold of each other in EC50: 2990 nM for the first, 3770 nM for the second.

For `NS(=O)(=O)c1ccc(N2N=C(c3ccccc3)CC2c2ccc(Br)cc2)cc1` (centres undefined) [UNM-0000306160], the EC50 was 1070 nM.

Same assay, conditions: inactive by the depositor's call

First: COc1ccc(C2CC(c3ccccc3)=NN2c2ccc(C(=O)O)cc2)cc1 (centres undefined) [UNM-0000306085]
Second: COc1ccc(C2CC(c3ccccc3C)=NN2c2ccc(S(N)(=O)=O)cc2)cc1 (centres undefined) [UNM-0000306152]
The EC50 of the first is 7.3-fold higher: 30000 nM for the first, 4130 nM for the second. The second is the more potent here.
